Measurements: PubChem BioAssay AID248 (DTP/NCI, 2004)
Toxic doses and inconclusive results are not listed. No stated cut-off is given here; in the data, active means T/C of 150% or more; inactive means T/C below 125%.

System: L1210 leukemia ip in BDF1 mice, survival T/C
Experiment: NCI In Vivo Anticancer Drug Screen. Data for tumor model L1210 Leukemia (intraperitoneal) in B6D2F1 (BDF1) mice
Conditions: endpoint: mean survival time, higher = longer survival
How it was run: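 Mice bearing the transplanted tumor received compound or vehicle. Survival of the treated group was divided by that of the vehicle-treated control group to give the ratio.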

[1] = dose: 100.0 mg/kg/injection, schedule: Q01DX009 (ip), vehicle: Klucel (hydroxypropylcellulose) (HPC)
[2] = dose: 100.0 mg/kg/injection, schedule: Q04DX003 (ip), vehicle: Klucel (hydroxypropylcellulose) (HPC)
[3] = dose: 200.0 mg/kg/injection, schedule: Q01DX009 (ip), vehicle: Klucel (hydroxypropylcellulose) (HPC)
[4] = dose: 200.0 mg/kg/injection, schedule: Q04DX003 (ip), vehicle: Klucel (hydroxypropylcellulose) (HPC)
[5] = dose: 400.0 mg/kg/injection, schedule: Q01DX009 (ip), vehicle: Klucel (hydroxypropylcellulose) (HPC)
[6] = dose: 400.0 mg/kg/injection, schedule: Q04DX003 (ip), vehicle: Klucel (hydroxypropylcellulose) (HPC)
[7] = dose: 100.0 mg/kg/injection, schedule: Q04DX003 (ip), vehicle: saline with Tween-80
[8] = dose: 200.0 mg/kg/injection, schedule: Q04DX003 (ip), vehicle: saline with Tween-80
[9] = dose: 400.0 mg/kg/injection, schedule: Q04DX003 (ip), vehicle: saline with Tween-80
[10] = dose: 100.0 mg/kg/injection, schedule: Q04DX002 (ip), vehicle: saline with Tween-80
[11] = dose: 400.0 mg/kg/injection, schedule: Q01DX001 (ip), vehicle: Klucel (hydroxypropylcellulose) (HPC)
[12] = dose: 100.0 mg/kg/injection, schedule: Q01DX001 (ip), vehicle: saline
[13] = dose: 400.0 mg/kg/injection, schedule: Q01DX001 (ip), vehicle: saline
[14] = dose: 200.0 mg/kg/injection, schedule: Q01DX001 (ip), vehicle: saline
[15] = dose: 100.0 mg/kg/injection, schedule: Q01DX009 (ip), vehicle: saline
[16] = dose: 200.0 mg/kg/injection, schedule: Q01DX009 (ip), vehicle: saline

Measured: T/C

C/C(=C\C(=O)Nc1ncn[nH]1)Nc1ncn[nH]1
inactive: [1] 100 % of control | [2] 95 % of control | [3] 92 % of control | [4] 106 % of control | [5] 102 % of control | [6] 93 % of control

Cc1nc(NN)ccc1[N+](=O)[O-]
inactive: dose: 100.0 mg/kg/injection, schedule: Q04DX002 (ip), vehicle: Klucel (hydroxypropylcellulose) (HPC) 96 % of control | dose: 200.0 mg/kg/injection, schedule: Q04DX002 (ip), vehicle: Klucel (hydroxypropylcellulose) (HPC) 90 % of control | dose: 400.0 mg/kg/injection, schedule: Q04DX002 (ip), vehicle: Klucel (hydroxypropylcellulose) (HPC) 96 % of control

CCCCNC(=O)CS(=O)(=O)c1ccc(Cl)cc1
inactive: [7] 94 % of control | [8] 100 % of control | [9] 94 % of control

CC/C=C(\CCC)CCCC
inactive: [10] 94 % of control | dose: 200.0 mg/kg/injection, schedule: Q04DX002 (ip), vehicle: saline with Tween-80 97 % of control | dose: 400.0 mg/kg/injection, schedule: Q04DX002 (ip), vehicle: saline with Tween-80 94 % of control

Clc1ccc(CC[PH+]2CC=CC2)cc1.Clc1ccc(CC[PH+]2CC=CC2)cc1.[Cl][Ni][Cl]
inactive: [10] 107 % of control

CC(C)(C)NC(=O)CCC1C2C=CC(C2)C1C(=O)NC(C)(C)C (configuration not stated)
inactive: dose: 100.0 mg/kg/injection, schedule: Q01DX001 (ip), vehicle: Klucel (hydroxypropylcellulose) (HPC) 97 % of control | [2] 101 % of control | dose: 200.0 mg/kg/injection, schedule: Q01DX001 (ip), vehicle: Klucel (hydroxypropylcellulose) (HPC) 92 % of control | [4] 97 % of control | [11] 98 % of control | [6] 107 % of control

COC(OC)c1[nH]c(=O)[nH]c(=O)c1F.[Hg]
inactive: dose: 3.0 mg/kg/injection, schedule: Q01DX009 (ip), vehicle: saline 97 % of control | dose: 6.0 mg/kg/injection, schedule: Q01DX009 (ip), vehicle: saline 97 % of control | dose: 12.0 mg/kg/injection, schedule: Q04DX003 (ip), vehicle: saline 98 % of control

CN1C2CC(=O)CC1C(O)C2 (configuration not stated)
inactive: [12] 103 % of control | [13] 90 % of control

O=C(c1ccccc1)N1CCN(C(=O)c2ccccc2)C1
inactive: [1] 91 % of control | [3] 98 % of control | [5] 104 % of control

O=C(O)c1oc(Br)cc1Br
inactive: dose: 12.5 mg/kg/injection, schedule: Q04DX003 (ip), vehicle: other 96 % of control | dose: 25.0 mg/kg/injection, schedule: Q04DX003 (ip), vehicle: other 102 % of control | dose: 50.0 mg/kg/injection, schedule: Q04DX003 (ip), vehicle: other 101 % of control

NC(=O)C(c1ccccc1)C(O)c1ccccc1 (configuration not stated)
inactive: dose: 50.0 mg/kg/injection, schedule: Q01DX001 (ip), vehicle: saline 101 % of control | [12] 95 % of control | [14] 97 % of control | [13] 101 % of control

CC(=O)Oc1c2cccc3c(=O)c4cccc5c4-c(c23)c2c1cccc2c5=O
inactive: [7] 95 % of control | [8] 95 % of control | [9] 101 % of control

COc1cc(C(=O)O)c(C(=O)O)cc1OC
inactive: dose: 12.5 mg/kg/injection, schedule: Q01DX001 (ip), vehicle: Klucel (hydroxypropylcellulose) (HPC) 104 % of control | dose: 12.5 mg/kg/injection, schedule: Q01DX009 (ip), vehicle: saline 101 % of control | dose: 25.0 mg/kg/injection, schedule: Q01DX001 (ip), vehicle: Klucel (hydroxypropylcellulose) (HPC) 108 % of control | dose: 25.0 mg/kg/injection, schedule: Q01DX009 (ip), vehicle: saline 103 % of control | dose: 50.0 mg/kg/injection, schedule: Q01DX001 (ip), vehicle: Klucel (hydroxypropylcellulose) (HPC) 101 % of control | dose: 50.0 mg/kg/injection, schedule: Q01DX009 (ip), vehicle: saline 104 % of control | dose: 75.0 mg/kg/injection, schedule: Q01DX009 (ip), vehicle: Klucel (hydroxypropylcellulose) (HPC) 97 % of control | dose: 115.0 mg/kg/injection, schedule: Q01DX009 (ip), vehicle: Klucel (hydroxypropylcellulose) (HPC) 100 % of control | dose: 170.0 mg/kg/injection, schedule: Q01DX009 (ip), vehicle: Klucel (hydroxypropylcellulose) (HPC) 100 % of control | [11] 88 % of control

CC(N)(CCCN)C(=O)O (configuration not stated)
inactive: [15] 102 % of control | dose: 100.0 mg/kg/injection, schedule: Q04DX003 (ip), vehicle: saline 104 % of control | [16] 102 % of control | dose: 200.0 mg/kg/injection, schedule: Q04DX003 (ip), vehicle: saline 102 % of control | dose: 400.0 mg/kg/injection, schedule: Q01DX009 (ip), vehicle: saline 94 % of control | dose: 400.0 mg/kg/injection, schedule: Q04DX003 (ip), vehicle: saline 101 % of control

CCN(CC)C(=O)c1ccccc1C(=O)O
inactive: [1] 94 % of control | [3] 92 % of control | [5] 92 % of control

CCC(=O)N(N=O)c1ccccc1
inactive: dose: 18.8 mg/kg/injection, schedule: Q01DX001 (ip), vehicle: saline 91 % of control

O=C(O)c1cccc(F)c1C(=O)c1ccc2ccccc2c1
inactive: dose: 75.0 mg/kg/injection, schedule: Q01DX001 (ip), vehicle: carboxymethylcellulose (CMC) 96 % of control | [2] 97 % of control | dose: 150.0 mg/kg/injection, schedule: Q01DX001 (ip), vehicle: carboxymethylcellulose (CMC) 95 % of control | [4] 105 % of control | dose: 300.0 mg/kg/injection, schedule: Q01DX001 (ip), vehicle: carboxymethylcellulose (CMC) 93 % of control

C=C1C(=O)OC2C3OC(C)(CCC(O)C3COC(C)=O)CC(OC(=O)/C(=C/C)COC(C)=O)C12 (configuration not stated)
inactive: dose: 6.25 mg/kg/injection, schedule: Q01DX009 (ip), vehicle: Klucel (hydroxypropylcellulose) (HPC) 100 % of control | dose: 12.5 mg/kg/injection, schedule: Q01DX009 (ip), vehicle: Klucel (hydroxypropylcellulose) (HPC) 97 % of control | dose: 25.0 mg/kg/injection, schedule: Q01DX009 (ip), vehicle: Klucel (hydroxypropylcellulose) (HPC) 103 % of control

CCOC(=O)C1C2CCCCC21 (configuration not stated)
inactive: [12] 102 % of control | [14] 96 % of control

CC(c1ccccc1C(=O)O)c1ccc(Br)c2ccccc12 (configuration not stated)
inactive: dose: 50.0 mg/kg/injection, schedule: Q04DX003 (ip), vehicle: Klucel (hydroxypropylcellulose) (HPC) 93 % of control | [2] 108 % of control | [4] 98 % of control

CCOC(=O)c1c[nH]c2cc(OCC3CC3)c(OCC3CC3)cc2c1=O
inactive: dose: 100.0 mg/kg/injection, schedule: Q01DX009 (ip), vehicle: saline with Tween-80 92 % of control

CCOC(=O)c1cc(=O)c2c(ccc3ccccc32)[nH]1
inactive: [2] 94 % of control | [4] 93 % of control

CC(=O)Nc1ccc(C=Nc2ccccc2)cc1
inactive: [1] 107 % of control | [2] 96 % of control | [3] 102 % of control | [4] 97 % of control | [5] 111 % of control | [6] 97 % of control

Cc1ccc(S(C)=O)c(C)c1 (configuration not stated)
inactive: [15] 97 % of control | [16] 96 % of control

CCCCCOC(=O)c1ccc(C)s1
inactive: dose: 100.0 mg/kg/injection, schedule: Q01DX001 (ip), vehicle: carboxymethylcellulose (CMC) 90 % of control | dose: 200.0 mg/kg/injection, schedule: Q01DX001 (ip), vehicle: carboxymethylcellulose (CMC) 101 % of control | dose: 400.0 mg/kg/injection, schedule: Q01DX001 (ip), vehicle: carboxymethylcellulose (CMC) 98 % of control
